Measured values from US20230285372A1, “Pharmaceutical use of (E)-3-arylheterocyclylprop-2-enoic acid derivatives” (MEDCURIUS INC., priority 2020, published 2023).
Values joined by “and” are separate entries in the source; they are usually repeats but may differ in a detail not shown here. Identical values can stand only once.

Legend:
[1] = tested on: HO-1; assay: HO-1 expression in HT-22 cytoplasm, Western Blot; assay type: cell-based, mouse; settings: HT-22 cells, 1.25 μM and 0.625 μM, 24 hours, vs control group
Description: (§1) As a transcription factor, Nrf2 needs to enter the nucleus and combine with ARE sequence to play a role in transcriptional activation. Therefore, Nrf2 protein level in the nucleus is an important prerequisite for the activation of Nrf2 signaling pathway. NQO-1 and HO-1 are target genes regulated by Nrf2, and the increase of their protein levels is an important sign of activation of the Nrf2 signaling pathway.
(§2) HT-22 cells in logarithmic growth phase were selected, the culture medium was discarded, the cells were digested with 0.25% Trypsin containing EDTA, and cell suspension was made. Cell density was adjusted to 50000/ml with DMEM/F12 medium (containing 10% FBS and 1% double antibody) and it was inoculated to 6-well plate, with 2000 μL/well, the number of cells per well was 100, 000, and the cells were cultured in a cell incubator at 37° C. in an atmosphere containing 5% CO2 for 24 hours. Then, the medium of each well was replaced with new 1980 μL DMEM/F12 medium. […] After 24 hours, the cells were collected, nuclear protein and cytoplasmic protein were extracted, and the level of Nrf2 in the nucleus and the expression of NQO-1 and HO-1 in cytoplasm were detected by Western Blot.

[2] = tested on: MPTP-induced Parkinson's disease mouse; assay: Rotarod test, MPTP-induced Parkinson's disease mouse; assay type: in vivo; settings: vs model group
Description: (§3) Male C57 mouse were screened for their motor function by a mouse rod-rotating test, and unqualified ones were excluded from the test. […] MPTP was injected subcutaneously every 4 days in the model group and the drug administration group with a dosage of 25 mg/kg for 40 consecutive days. Each group of I-5 was administered once a day at 8:00 am and 8:00 pm (by intragastric administration), twice in total. […] The intragastric volume was 0.1 ml/10 g body weight, and the behavior test was started 40 days later. […] The storage time of the prepared liquid medicine was not more than 24 hours.
On the first day, the mouse acclimated to a rotating speed of 5 rpm for two times, each time for 5 minutes. On the second day, the rotarod turned at a speed of 10 rpm, the mouse acclimated to the speed for two times, each time for 5 minutes. On the third day, the rotarod turned at a speed of 15 rpm, the mouse acclimated to the speed for two times, each time for 3 minutes. On the fourth day, a behavioral test was started. The rotarod turned at a speed of 15 rpm for a period of 3 minutes. The time mouse spent on the rotarod (fall latency) was taken as an index for evaluation of their motor coordination. The test was repeated three times for each animal, with an interval of 30 minutes to eliminate the interference of exercise fatigue on the motion ability of animals.

[3] = tested on: α-synuclein protein; assay: α-synuclein protein level in midbrain, Western blot, MPTP mouse; assay type: in vivo; settings: high dosage treatment group of I-5; vs model group, p<0.05
Description: (§4) The core pathological change of Parkinson's disease is the loss of dopaminergic neurons. Tyrosine hydroxylase (TH), the rate-limiting enzyme in dopamine synthesis, is the landmark protein of the dopaminergic neurons. Therefore, the decrease in its level indicates the loss of the dopaminergic neurons. A key protein for the occurrence and development of Parkinson's disease is α-synuclein protein, and the abnormal modification (hyperphosphorylation) of this protein can inhibit microtubule polymerization, enhance oxidative stress, and thus accelerate the death of the dopaminergic neurons.
Male C57 mouse were screened for their motor function by a mouse rod-rotating test, and unqualified ones were excluded from the test. […] MPTP was injected subcutaneously every 4 days in the model group and the drug administration group with a dosage of 25 mg/kg for 40 consecutive days. Each group of I-5 was administered once a day at 8:00 am and 8:00 pm (by intragastric administration), twice in total. […]
Tissues from all the animals were collected on the second day after the end of the behavioral experiment. […] The level of tyrosine hydroxylase (TH), a marker protein of dopaminergic neurons, was detected by immumohistochemistry, and α-synuclein protein level and phosphorylation level of the protein were detected by Western blot.

[4] = tested on: Nrf2; assay: Nrf2 protein level in the nucleus of HT-22 cells, Western Blot; assay type: cell-based, mouse; settings: 1.25 μM and 0.625 μM, 24 hours, vs control group
Description: as §1, §2

[5] = tested on: tyrosine hydroxylase (TH); assay: Tyrosine hydroxylase (TH) level in midbrain, immunohistochemistry, MPTP mouse; assay type: in vivo; settings: medium and high dosage of I-5 (10 and 20 mg/kg bid); vs model group
Description: Male C57 mouse were screened for their motor function by a mouse rod-rotating test, and unqualified ones were excluded from the test. […] MPTP was injected subcutaneously every 4 days in the model group and the drug administration group with a dosage of 25 mg/kg for 40 consecutive days. Each group of I-5 was administered once a day at 8:00 am and 8:00 pm (by intragastric administration), twice in total. The control group and model group were given the corresponding solvent once a day in the morning (by intragastric administration) while the positive control group (L-DOPA) was given L-DOPA once a day in the morning (by intragastric administration). The intragastric volume was 0.1 ml/10 g body weight, and the behavior test was started 40 days later. […] The storage time of the prepared liquid medicine was not more than 24 hours.

[6] = tested on: MPTP-induced Parkinson's disease mouse; assay: Model of MPTP-induced Parkinson's disease mouse, overall conclusion; assay type: in vivo; settings: improves MPTP-induced dyskinesia and inhibits neurodegeneration; bid intragastric
Description: as §3

[7] = tested on: p-synuclein; assay: Phosphorylated α-synuclein (p-synuclein) level in midbrain, Western blot, MPTP mouse; assay type: in vivo; settings: vs model group
Description: as §4, §3
Tissues from all the animals were collected on the second day after the end of the behavioral experiment. Hearts from six animals in each group were perfused and fixed with paraformaldehyde for pathological analysis of paraffin sections. Brain tissue of the remaining animals was separated on ice, and brain areas (midbrain) related to Parkinson's disease were collected. After being frozen with liquid nitrogen, they were stored in a refrigerator at −80° C. for protein analysis. The level of tyrosine hydroxylase (TH), a marker protein of dopaminergic neurons, was detected by immumohistochemistry, and α-synuclein protein level and phosphorylation level of the protein were detected by Western blot.

[8] = tested on: NQO-1; assay: NQO-1 expression in HT-22 cytoplasm, Western Blot; assay type: cell-based, mouse; settings: HT-22 cells, 1.25 μM, 24 hours, vs control group
Description: as §1, §2

Compound: N#C/C=C/c1ccccn1 [Compound I-5]
- protein level of HO-1 [1]: increased significantly
- fall latency in the Rotarod test ([2]; 5 mg/kg bid intragastric, p>0.05): no significant difference
- fall latency in the Rotarod test ([2]; medium and high dosage groups (10 and 20 mg/kg bid), p<0.0001): significantly prolonged
- α-synuclein protein level in the midbrain [3]: significantly higher than that of the model group
- protein level of Nrf2 in the nucleus [4]: significantly higher than that of the control group
- TH positive area of substantia nigra [5]: significantly increase the TH positive area
- effective doses [6]: 10 mg/kg and 20 mg/kg
- p-synuclein protein level in the midbrain ([7]; I-5 10 mg/kg, p<0.01): significantly lower than that in the model group
- p-synuclein protein level in the midbrain ([7]; I-5 20 mg/kg, p<0.05): significantly lower than that in the model group
- protein level of NQO-1 [8]: increased significantly
